Assay results reported in US20260209243A1, “A BIOORTHOGONAL CYCLOADDITION REACTION AND USE THEREOF” (NANJING UNIVERSITY, priority 2022, published 2026).

How the values were obtained:
[1] = Kinetics studies: DFC reaction of FuA with oD1 in PBS; details: pH 7.4 PBS buffer
Experimental: (§1) DFC reaction in PBS and on proteins. (A) The DFC reaction of oD1 with FuA in pH 7.4 PBS buffer; (B) Time-dependent labelling of 2 mg/mL BSA-FuA with 100 nM oD1-TAMRA for time indicated. Fluorescence signals were acquired using Cy3 channel. Coomassie staining was used to assess BSA loading; (C) Schematic illustration on the single-site modification of the protein oD1 (C156)-SNAP-GFP through the DFC reaction. SNAP-GFP (2 mg/mL) in PBS (pH=7.4) was mixed with 1.5 equivalents of BG-PEG4-oD1 and was incubated at room temperature for 20 min to give oD1 (C156)-SNAP-GFP.
(§2) Measurement of second order rate constants of (A) reactions of o-dione (25 μM) with furan-2(3H)-one (250 μM) in 1×PBS (pH=7.4) and (B) reactions of oD1 (25 μM) with α-AL (250 μM) in different pH buffer. (When pH=5, 6; oD1 is 250 μM and α-AL is 2.5 mM) by plotting ln[1/(1−x)] versus time of o-dione with furan-2(3H)-one reaction (x represents the percent conversion of o-dione).
All kinetics experiments were carried out at room temperature in 1×PBS (pH=7.4). […] Pseudo-first order rate constant kobs was determined by plotting ln[1/(1−x)] versus time and analysis by linear regression. x represents the percent conversion of o-dione. […] The second rate constant k2 was calculated by kobs/[furan-2(3H)-one]. […]

[2] = system: SKOV3 cells; assay: MTT assay; format: cell-based; details: 0-200 μM, 24 h
Experimental: Relative cell viability of SKOV3 cells after incubation with FuA or PDO6. SKOV3 cells were incubated with 0-200 μM FuA or PDO6 for 24 h. MTT was used to assess the cell viability. Data are shown as mean±SEM (n=3).
SKOV3 cells were seeded in 96-well plates with a concentration of 10,000 cells per well. After 12 h, FuA or PDO6 was added with final concentrations of 0, 40, 80, 120, 160, 200 μM. Then, SKOV3 cells were further cultured for 24 h. MTT assay was then carried out. For each well, 20 μL MTT solution (final concentration, 1 mg/mL) was added and 150 μL DMSO was added after 4 h′ incubation. The absorbance at 490 nm was then measured to indicate the cell viability.

[3] = Kinetics studies: cycloaddition of o-diones with α-AL; details: aqueous solution, pH ranging from 5 to 9
Experimental: The cycloaddition kinetics of α-AL with different o-diones in pH 7.4 PBS buffer or in aqueous solution with indicated pH.
as §2
All kinetics experiments were carried out at room temperature in 1×PBS (pH=7.4). Second order kinetics were performed by combining o-dione and furan-2(3H)-one in a 1:10 ratio, and the concentration of o-dione is 25/250 μM. Pseudo-first order rate constant kobs was determined by plotting ln[1/(1−x)] versus time and analysis by linear regression. x represents the percent conversion of o-dione. The slope of the linear equation is kobs. The second rate constant k2 was calculated by kobs/[furan-2(3H)-one]. The reported errors for rate constants are based on the standard deviation of the mean for experiments performed in triplicate.

[4] = system: live cells; details: stated as known; cited from earlier work
[5] = target: T1, BSA-FuA (Bos taurus, UniProt P02769); assay: In-gel fluorescence assay of DFC reaction on BSA-FuA; format: biochemical, bovine; details: incubated in PBS; PDO type cycloadduct confirmed by LC-MS/MS
T1 construct: purchased Sangon Biotech (Shanghai, China)
Experimental: as §1
DFC-based BSA protein labelling and characterization. […]
A solution of BSA (2 mg/mL) in PBS (pH=7.4) was mixed with 200 equivalents of FuA NHS ester and was shaken (900 rpm) at room temperature for 4 h. […] The concentration of BSA-FuA was quantified with BCA protein assay kit (Pierce).
For concentration-dependent reaction, BSA-FuA (2 mg/mL) was incubated with various concentrations of oD1-TAMRA (0-1000 nM) in PBS at room temperature for 30 min. […] Protein samples (20 μg) were further analyzed by gel electrophoresis using 12% polyacrylamide gels and imaged with Bio-Rad Chemdoc imaging system using corresponding filters. Protein loading was assessed by staining with Coomassie Blue according to manufacturer's instructions.

T1 sequence (P02769 25-607): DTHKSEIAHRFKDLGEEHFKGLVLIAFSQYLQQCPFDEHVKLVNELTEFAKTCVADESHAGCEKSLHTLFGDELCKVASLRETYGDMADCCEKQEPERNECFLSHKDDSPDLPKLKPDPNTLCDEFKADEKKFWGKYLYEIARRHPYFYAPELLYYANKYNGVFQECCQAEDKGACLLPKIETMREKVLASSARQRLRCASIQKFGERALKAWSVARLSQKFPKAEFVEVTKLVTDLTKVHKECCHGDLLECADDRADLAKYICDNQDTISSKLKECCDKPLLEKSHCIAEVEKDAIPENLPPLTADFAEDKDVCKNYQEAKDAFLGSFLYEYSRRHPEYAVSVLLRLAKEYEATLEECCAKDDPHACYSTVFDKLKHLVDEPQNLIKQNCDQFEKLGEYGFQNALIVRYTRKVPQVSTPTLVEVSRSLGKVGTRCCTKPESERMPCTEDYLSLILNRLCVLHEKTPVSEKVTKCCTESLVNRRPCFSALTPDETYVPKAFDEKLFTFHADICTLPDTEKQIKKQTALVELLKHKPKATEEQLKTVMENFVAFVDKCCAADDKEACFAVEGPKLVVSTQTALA

**Q.** Which “second-order constant of DFC reaction of oD1 with FuA” value [1] does the source give for `O=C(O)CCCC1=CCC(=O)O1` [FuA, 4-(5-oxo-4,5-dihydrofuran-2-yl)butanoic acid] here?
**A.** Its value is “about 4 M^−1 s^−1”.

**Q.** And the “cytotoxicity / compatibility with live cells (MTT)” value [2]?
**A.** The value was “good compatibility with live cells”.

**Q.** Which “pH dependence of reaction kinetics with α-AL” value [3] does the source give for `O=C(O)c1ccc2c(c1)-c1ccccc1C(=O)C2=O` [oD1] here?
**A.** The value was “increase of pH under which α-AL is stable enough apparently accelerates the cycloaddition reaction”.

**Q.** And the “compatibility with live cells” value [4]?
**A.** Its value is “compatible with live cells”.

**Q.** Which “fluorescence of BSA-FuA after incubation” value [5] does the source give for `O=C1C(=O)c2ccccc2-c2ccccc21` [PQ, phenanthrene-9,10-dione] here?
**A.** The value was “fluorescence turn-on”.
